According to the Kinase Knowledgebase extract (Sharma et al. 2016):

Biological target: MAPK14 (human) (UniProt Q16539)
Experiment: Inhibition of MAPK14 Kinase Activity

Sequence of MAPK14 (human) (Q16539 whole entry, looked up): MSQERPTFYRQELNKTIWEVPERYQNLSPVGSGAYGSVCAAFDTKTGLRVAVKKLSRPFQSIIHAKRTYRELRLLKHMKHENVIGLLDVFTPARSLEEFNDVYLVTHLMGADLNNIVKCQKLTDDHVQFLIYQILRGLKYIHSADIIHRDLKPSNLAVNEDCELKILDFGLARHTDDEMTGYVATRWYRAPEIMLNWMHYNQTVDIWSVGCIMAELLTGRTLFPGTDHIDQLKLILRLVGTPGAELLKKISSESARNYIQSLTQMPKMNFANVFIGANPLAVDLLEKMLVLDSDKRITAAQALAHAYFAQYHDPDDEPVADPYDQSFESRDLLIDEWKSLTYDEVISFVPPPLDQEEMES

Compound	IC50
CC(C)Cn1ncc2cc(C(=NOCc3ccccc3)c3ccc(F)cc3F)ccc21	< 0.5 µM
O=C(c1ccc2c(cnn2CC(F)(F)F)c1)c1ccc(F)cc1F	< 0.5 µM
CC(C)Cn1ncc2cc(C(O)c3ccc(F)cc3F)ccc21 (stereo not drawn)	< 0.5 µM
CC(C)Cn1ncc2cc(C(=O)c3ccc(Cl)cc3Cl)ccc21	< 0.5 µM
CCON=C(c1ccc(F)cc1)c1ccc2c(cnn2CC(C)C)c1	< 0.5 µM
CC(C)Cn1ncc2cc(C(O)c3ccc(Cl)cc3Cl)ccc21 (stereo not drawn)	< 0.5 µM
CC(C)Cn1ncc2cc(C(O)c3ccc(Cl)cc3F)ccc21 (stereo not drawn)	< 0.5 µM
COC(=O)C(CCN)NC(=O)c1cc2c(cnn2CC(F)(F)F)cc1Oc1ccc(F)cc1 (stereo not drawn)	< 0.5 µM
ON=C(c1ccc2c(cnn2CC(F)(F)F)c1)c1ccc(F)cc1F	< 0.5 µM
Cc1ccccc1Nc1ccc2c(cnn2CC(C)C)c1	< 0.5 µM
CC(C)Cn1ncc2cc(Oc3ccc(F)cc3)c(C(=O)NCCN(C)C)cc21	< 0.5 µM
CC(C)Cn1ncc2cc(C(=NO)c3ccc(F)cc3F)ccc21	< 0.5 µM
CC(C)Cn1ncc2cc(C(=O)c3ccc(F)cc3F)ccc21	< 0.5 µM
CON=C(c1ccc2c(cnn2S(C)(=O)=O)c1)c1ccc(F)cc1F	< 0.5 µM
CC(C)Cn1ncc2cc(C(O)c3ccc(F)cc3Cl)ccc21 (stereo not drawn)	< 0.5 µM
CON=C(c1ccc2c(cnn2CC(F)(F)F)c1)c1ccc(F)cc1F	< 0.5 µM
CC(C)Cn1ncc2cc(C(=NO)c3ccc(F)cc3)ccc21	< 0.5 µM
CC(C)Cn1ncc2cc(C(=O)c3ccc(F)cc3)ccc21	< 0.5 µM
CC(C)Cn1ncc2cc(C(=O)c3ccc(F)cc3Cl)ccc21	< 0.5 µM
CC(C)Cn1ncc2cc(Oc3ccc(F)cc3)c(C(N)=O)cc21	< 0.5 µM
COC(=O)C(CCN)NC(=O)c1cc2c(cnn2CC(C)C)cc1Oc1ccc(F)cc1 (stereo not drawn)	< 0.5 µM
CCON=C(c1ccc2c(cnn2CC(C)C)c1)c1ccc(F)cc1F	< 0.5 µM

Second part, the molecule after the results:

IC50	Compound
< 0.5 µM	CS(=O)(=O)n1ncc2cc(C(=NO)c3ccc(F)cc3F)ccc21
< 0.5 µM	CN(C)CCNC(=O)c1cc2c(cnn2CC(F)(F)F)cc1Oc1ccc(F)cc1
< 0.5 µM	CC(C)Cn1ncc2cc(Nc3ccc(F)cc3F)ccc21
< 0.5 µM	CC(C)Cn1ncc2cc(C(O)c3ccc(F)cc3)ccc21 (stereo not drawn)
< 0.5 µM	C=CCn1ncc2cc(C(=NO)c3ccc(F)cc3F)ccc21
< 0.5 µM	CON=C(c1ccc(F)cc1)c1ccc2c(cnn2CC(C)C)c1
< 0.5 µM	CC(C)Cn1ncc2cc(Nc3ccc(F)cc3)ccc21
< 0.5 µM	Cc1ccccc1C(O)c1ccc2c(cnn2CC(C)C)c1 (stereo not drawn)
< 0.5 µM	C=CCn1ncc2cc(C(=O)c3ccc(F)cc3F)ccc21
< 0.5 µM	Cc1ccccc1C(=O)c1ccc2c(cnn2CC(C)C)c1
< 0.5 µM	CC(C)Cn1ncc2cc(C(=O)c3ccc(Cl)cc3F)ccc21
